Experimental findings from patent US10336748B2, “Methyoxy-substituted pyrrolopyridine modulators of RORC2 and methods of use thereof” (Pfizer Inc., priority 2015, dated 2019) are described below.

Assay [1] has as its target T1, RORC2 ligand binding domain (6-His-RORC2 LBD) (Homo sapiens, UniProt P51449).
T1 construct: made in house; host or cells: E. coli
T1 sequence (P51449 269-508 limits assumed): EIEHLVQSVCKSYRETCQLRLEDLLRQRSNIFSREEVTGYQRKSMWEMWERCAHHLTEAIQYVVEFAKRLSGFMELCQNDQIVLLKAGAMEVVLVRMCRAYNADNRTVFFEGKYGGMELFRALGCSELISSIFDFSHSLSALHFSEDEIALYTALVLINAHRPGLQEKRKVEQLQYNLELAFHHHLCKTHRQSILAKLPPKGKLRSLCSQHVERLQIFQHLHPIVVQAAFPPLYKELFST
In words: Co-activator recruitment by TR-FRET. In kind it is biochemical. To be noted: 6.3 nM RORC2 LBD, 200 nM SRC1-2 coactivator peptide, 3 hr room temperature. From the text:
The activity of compound of the invention can be determined by a co-activator recruitment by TR-FRET (time-resolved fluorescence resonance energy transfer) assay. In general, the assay is based on the interaction between N-terminally Six-Histidine-tagged-RORC2 ligand binding domain (6-His-RORC2 LBD), expressed in E. coli and purified by affinity chromatography, and biotin-coactivator peptide SRC1-2 (biotin-aminohexanoic acid-[…]-NH2; SEQ ID NO: 1) containing the LXXLL consensus domain which is responsible for receptor binding. This interaction is detected by addition of Europium labeled-anti-His antibody (Ex. 337 nm, Em. 620 nm, which binds to 6His) and Streptavidin-APC (Ex. 620 nm, Em. 665 nm, which binds to biotin). When receptor and coactivator are bound to each other, upon shining light at 337 nm on the sample, the Europium emits fluorescence that excites APC due to close proximity (FRET) and this signal is measured at 665 nm. Due to the long lasting fluorescence emission of Europium, the non-specific, short-lived fluorescence is time-resolved (TR) from the fluorescence of interest. Inhibitors of the interaction of receptor and coactivator peptide are detected by a decrease in TR-FRET signal.
Specifically, in one embodiment the aforementioned assay was performed as outlined below. The assay was carried out in black polystyrene. 384-well plates in a total assay volume of 50.5 μL. The assay buffer contained 50 mM TRIS-HCL pH 7.5, 1 mM NaCl, 2 mM MgCl2, 0.5 mg/mL bovine serum albumin, and 5 mM dithiothreitol. The final concentration of reagents was 6.3 nM RORC2 LBD, 200 nM SRC1-2, 50 nM streptavidin APC, 1 nM Europium-labeled anti-His antibody, and varying concentrations of compounds such that final concentration of DMSO is 1% (v/v). The assay steps were: (1) dispensing […] compound at 100× final concentration in DMSO (test wells) or DMSO only (control wells for no inhibition); and (2) dispensing 50 μL mixture of the other assay components including receptor (test wells) or excluding receptor (control wells for maximal inhibition).
Assay mixtures were incubated are room temperature for 3 hr and read in EnVision 2100 Multilabel Reader (PerkinElmer Life Sciences) at Excitation Filter 320, Emission Europium Filter 615, Emission APC Filter 665, Dichroic Mirror D400/D630.
TR-FRET signal was determined by calculating the ratio of 665 nm by 615 nm and […] values of compounds of the invention (Table 1) were determined by the non-linear regression analysis of dose response curves.

The test system of a further assay is human Th17 cells. The assay is described as follows: IL-17 production from human Th17 cells. The class given is cell-based. To be noted: 144 h; IL-17A in supernatant by ELISA (MSD) after 6 days, human CD4+ T cells, anti-CD3 + anti-CD28 + cytokine cocktail. The method, then: The activity of compound of the invention can be also be determined by an IL-17 production from human Th17 cells assay. In general, this assay measures blockade of IL-17 production, the signature cytokine of T helper 17 (Th17) cells, by compounds. Purified human CD4+ T cells are stimulated with anti-CD3+anti-CD28 and incubated with a cytokine cocktail that induce their differentiation into Th17 in the absence or presence of various concentrations of compound. After 6 days, IL-17A concentration is measured in the cell culture supernatant with an ELISA kit (MSD).
Preparation of human CD4+ T cells. CD4+ T cells were purified from buffy coats from healthy donors (obtained from Massachusetts General Hospital) by negative selection the following procedure: Mixing 25 mL of blood with 1 mL of Rosette Sep CD4+ T cell enrichment cocktail (StemCell Technologies) followed by application of a layer of 14 mL Ficoll Paque Plus (Amersham GE Healthcare) and subsequent centrifugation at 1200 g for 20 min at room temperature. The Ficoll layer was then harvested and washed with phosphate saline buffer containing 2% (v/v) fetal bovine serum and cells were resuspended with RPMI medium containing 10% (v/v) fetal bovine serum and 10% (v/v) DMSO, frozen and kept in LN2 until used.
On the first day of the assay, a vial containing 10^7 CD4+ T cells is thawed rapidly in 37° C. water bath, immediately transferred into 20 mL X-Vivo 15 medium (Lonza), is spun for 6 min at 300×g, the supernatant is discarded, and the resulting pellet is re-suspended at 10^6 cells/mL in […] fresh X-Vivo 15 medium, followed by storage overnight in a tissue culture vessel in a humidified chamber at 37° C. and 5% CO2. Serial dilutions of compounds of the invention are prepared at 10× final concentration in X-Vivo15 medium containing 3% (v/v) DMSO.
On the second day of the assay, a 384-well tissue culture plate was coated with 10 μg/mL anti-hCD3 (eBioscience) at 50 μL/well. After 2 hr at 37° C., the supernatant is discarded and the coated plates are kept in a sterile tissue culture hood.
Cytokine plus anti-CD28 cocktail is prepared by mixing 25 ng/mL hIL-6 (Peprotech), 5 ng/mL hTGFbeta1 (Peprotech), 12.5 ng/mL IL-1beta (Peprotech), 25 ng/mL hIL-21, 25 ng/mL hIL-23 (R&D Systems), and 1 ug/mL anti-hCD28 (eBioscience) in X-Vivo 15 medium. The cytokine plus anti-CD28 cocktail with CD4+ cells is prepared such that the cocktail is diluted 10-fold and cell density is 0.22×10^6/mL. The mixture is incubated 1 hr at 37° C.
90 μL (20,000 cells) dispensed per well in the anti-hCD3 coated plate prepared as noted above.
10 μL 10× compound is added per well (final DMSO=0.3%) from the compound plate that was previously prepared, followed by 6 days of incubation in a tissue culture vessel in a humidified chamber at 37° C. and 5% CO2.
On day six of the assay, production of IL-17A in 10 μL of the supernatant is determined by sandwich ELISA using 384w hIL17 MSD plates following the manufacturer's protocol. Measurement is carried out in a Sector Imager 6000 by the same manufacturer. Signal units from the instrument are converted to pg/mL using a calibration curve with known amounts of IL-17A. IC50 values of test compounds (Table 2) are determined by the non-linear regression analysis of dose response curves.

Take `COc1c(NC(=O)c2cccc(C#N)c2)cnc2c1c([C@@H]1CCN(C(=O)[C@@H](C)C(C)(C)C)C(C)(C)C1)cn2C` [Example 34, 3-cyano-N-(3-((R)-2,2-dimethyl-1-((S)-2,3,3-trimethylbutanoyl)piperidin-4-yl)-4-methoxy-1-methyl-1H-pyrrolo[2,3-b]pyridin-5-yl)benzamide]: the results for the half-maximal inhibitory concentration (IC50) (in assay [1]; with human Th17 cells) were 9.4 nM and 23.1 nM, respectively.

Regarding `COc1c(NC(=O)c2cccc(C#N)c2)cnc2c1c(C1CCN(C(=O)[C@H](C)C(C)C)CC1)cn2C` [Example 6, (R)-3-cyano-N-(3-(1-(2,3-dimethylbutanoyl)piperidin-4-yl)-4-methoxy-1-methyl-1H-pyrrolo[2,3-b]pyridin-5-yl)benzamide], the IC50 in assay [1] amounted to 15.2 nM; in the assay on human Th17 cells, 15.7 nM.

Consider `COc1c(NC(=O)c2cccc(C#N)c2)cnc2c1c(C1CCN(C(=O)[C@@H](C)C3CCCC3)CC1)cn2C` [Example 19, (S)-3-cyano-N-(3-(1-(2-cyclopentylpropanoyl)piperidin-4-yl)-4-methoxy-1-methyl-1H-pyrrolo[2,3-b]pyridin-5-yl)benzamide], for which the half-maximal inhibitory concentration (IC50) turned out to be 13.3 nM in assay [1] and 22.3 nM with human Th17 cells.

`COc1c(NC(=O)c2cccc(C#N)c2)cnc2c1c(C1CCN(C(=O)c3cccc4c3CCC4)CC1)cn2C` [Example 7, 3-cyano-N-(3-(1-(2,3-dihydro-1H-indene-4-carbonyl)piperidin-4-yl)-4-methoxy-1-methyl-1H-pyrrolo[2,3-b]pyridin-5-yl)benzamide]: the values for the IC50 (in assay [1]; in the assay on human Th17 cells) were 4.7 nM and 28.3 nM, respectively.

Regarding `COc1c(NC(=O)c2cccc(C#N)c2)cnc2c1c([C@@H]1CCN(C(=O)C3CCCC3)C(C)(C)C1)cn2C` [Example 31, (R)-3-cyano-N-(3-(1-(cyclopentanecarbonyl)-2,2-dimethylpiperidin-4-yl)-4-methoxy-1-methyl-1H-pyrrolo[2,3-b]pyridin-5-yl)benzamide], the IC50 is 5.7 nM in assay [1] and 7.2 nM in the assay with human Th17 cells.

Turning to `COc1c(NC(=O)c2ccc(SC)c(C#N)c2)cnc2c1c(C1CCN(C(=O)[C@H](C)C(C)(C)C)CC1)cn2C` [Example 35, (R)-3-cyano-N-(4-methoxy-1-methyl-3-(1-(2,3,3-trimethylbutanoyl)piperidin-4-yl)-1H-pyrrolo[2,3-b]pyridin-5-yl)-4-(methylthio)benzamide], the IC50 in assay [1] amounted to 3.2 nM; in the assay on human Th17 cells it was 12.7 nM.
